# Reference: patent EP1247803A2, “Indolinone compounds suitable for modulation of protein kinases” (Sugen, Inc., priority 1996, dated 1998)
# Assays:
# EGFR = biological target: T1, EGFR (Homo sapiens, UniProt P00533); assay: EGFR ELISA assay (in vitro kinase activity, EGFR captured from A431 cell lysate); assay type: biochemical; design: concentration or dose not given beside the values
# T1 construct: Add 7 ug A431 cell lysate per well (EGFR source); endogenous in cells; host or cells: A431
# Procedure, shortened: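 EGFR from A431 lysate was captured on anti-EGFR antibody-coated plates and preincubated with compounds for 30 min. Autophosphorylation ran 5 min with 3 uM ATP and 5 mM MnCl2 (final), stopped with 20 mM EDTA. Phosphotyrosine was detected by anti-pTyr ELISA with ABTS/H2O2, read at 410 nm.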
# PDGF-R = PDGF-R (Homo sapiens, UniProt P09619); assay: PDGF-R ELISA; assay type: cell-based
# Description: A PDGF-R ELISA is described in International Patent Publication No. WO 96/40116, published December 19, 1996 by Tang et al.
# MET = MET biochemical kinase assay; design: species or system human; concentration or dose not given beside the values
# Procedure, shortened: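 Lysate-derived MET, or chimeric receptors, is immobilised on plates through an antibody to the human MET cytoplasmic region. Compounds are added along with kinase buffer supplying ATP and divalent metal ions, and receptor autophosphorylation is quantified by anti-phosphotyrosine ELISA.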
# T1 sequence (P00533 25-1210): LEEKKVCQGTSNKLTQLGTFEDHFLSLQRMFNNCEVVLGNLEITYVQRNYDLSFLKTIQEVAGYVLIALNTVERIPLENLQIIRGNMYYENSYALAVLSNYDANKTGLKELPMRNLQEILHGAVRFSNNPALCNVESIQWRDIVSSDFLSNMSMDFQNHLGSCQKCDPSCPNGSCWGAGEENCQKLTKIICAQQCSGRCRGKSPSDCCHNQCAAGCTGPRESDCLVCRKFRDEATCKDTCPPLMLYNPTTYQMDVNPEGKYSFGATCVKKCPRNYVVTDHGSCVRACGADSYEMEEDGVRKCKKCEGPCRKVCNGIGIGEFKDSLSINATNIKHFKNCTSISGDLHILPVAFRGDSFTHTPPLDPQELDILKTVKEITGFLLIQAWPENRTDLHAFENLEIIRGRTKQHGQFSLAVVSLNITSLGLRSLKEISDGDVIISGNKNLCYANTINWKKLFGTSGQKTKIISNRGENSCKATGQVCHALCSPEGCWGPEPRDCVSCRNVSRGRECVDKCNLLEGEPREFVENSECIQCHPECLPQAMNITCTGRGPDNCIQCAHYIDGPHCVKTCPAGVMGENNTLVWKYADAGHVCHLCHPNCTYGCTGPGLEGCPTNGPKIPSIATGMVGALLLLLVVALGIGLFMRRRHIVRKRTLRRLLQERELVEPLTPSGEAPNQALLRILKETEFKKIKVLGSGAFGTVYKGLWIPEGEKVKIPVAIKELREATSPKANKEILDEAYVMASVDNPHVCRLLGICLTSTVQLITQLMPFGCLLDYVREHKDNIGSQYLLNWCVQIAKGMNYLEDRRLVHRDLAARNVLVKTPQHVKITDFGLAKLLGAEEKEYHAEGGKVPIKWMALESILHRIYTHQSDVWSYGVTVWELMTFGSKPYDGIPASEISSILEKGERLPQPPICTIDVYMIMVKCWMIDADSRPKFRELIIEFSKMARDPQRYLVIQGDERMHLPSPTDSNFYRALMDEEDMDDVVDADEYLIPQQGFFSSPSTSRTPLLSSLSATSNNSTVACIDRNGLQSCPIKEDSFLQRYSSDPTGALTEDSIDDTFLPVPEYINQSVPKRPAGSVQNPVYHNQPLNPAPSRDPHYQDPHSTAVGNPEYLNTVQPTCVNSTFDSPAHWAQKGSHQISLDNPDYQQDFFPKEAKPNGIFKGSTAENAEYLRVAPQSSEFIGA
# PDGF-R, sequence (P09619 33-1106, species assumed): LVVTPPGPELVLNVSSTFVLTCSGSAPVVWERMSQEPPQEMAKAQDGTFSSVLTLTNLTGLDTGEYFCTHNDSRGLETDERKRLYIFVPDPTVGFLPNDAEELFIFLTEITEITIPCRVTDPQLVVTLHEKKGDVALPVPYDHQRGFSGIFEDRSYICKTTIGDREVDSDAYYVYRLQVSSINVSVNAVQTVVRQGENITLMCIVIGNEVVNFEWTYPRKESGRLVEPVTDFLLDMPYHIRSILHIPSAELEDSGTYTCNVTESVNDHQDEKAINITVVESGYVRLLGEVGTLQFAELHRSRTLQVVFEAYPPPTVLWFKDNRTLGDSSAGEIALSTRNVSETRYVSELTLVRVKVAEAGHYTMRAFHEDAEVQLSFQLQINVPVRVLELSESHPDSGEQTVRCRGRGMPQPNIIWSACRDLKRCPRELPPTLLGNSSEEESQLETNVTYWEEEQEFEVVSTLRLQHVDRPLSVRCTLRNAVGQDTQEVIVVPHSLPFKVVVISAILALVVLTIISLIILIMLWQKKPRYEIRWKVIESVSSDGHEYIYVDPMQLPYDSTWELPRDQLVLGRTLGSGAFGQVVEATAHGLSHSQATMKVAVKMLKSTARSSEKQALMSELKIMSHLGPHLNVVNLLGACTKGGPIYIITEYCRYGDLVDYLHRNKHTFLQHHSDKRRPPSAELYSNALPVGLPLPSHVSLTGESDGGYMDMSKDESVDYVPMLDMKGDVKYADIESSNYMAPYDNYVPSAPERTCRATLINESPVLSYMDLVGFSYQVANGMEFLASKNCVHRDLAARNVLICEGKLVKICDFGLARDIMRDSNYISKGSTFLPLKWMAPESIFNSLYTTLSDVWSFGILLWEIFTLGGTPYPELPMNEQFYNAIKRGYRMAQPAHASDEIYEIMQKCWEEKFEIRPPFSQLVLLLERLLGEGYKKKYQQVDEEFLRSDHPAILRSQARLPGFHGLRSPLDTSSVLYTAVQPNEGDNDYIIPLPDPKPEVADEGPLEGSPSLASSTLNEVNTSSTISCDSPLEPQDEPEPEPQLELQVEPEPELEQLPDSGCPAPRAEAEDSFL
SMILES,Biochem EGFR %Inhibition (EGFR),PDGF Kinase %Inhibition (PDGF-R),Met Kinase % Inhibition (MET)
CC(=O)Oc1ccc(C=C2C(=O)Nc3ccc(S(=O)(=O)N4CCOCC4)cc32)cc1OC(C)=O [10723/F05],-3.8%,-7.7%,45.6%
O=C1Nc2c(Br)cc(Br)cc2C1=Cc1ccc(O)cc1O [10723/A08],-2.1%,29.7%,77.3%
O=C1Nc2ccc(CCCl)cc2C1=Cc1ccc(C(=O)O)cc1 [10722/G05],-9.0%,-6.0%,9.7%
CC(=O)Oc1ccc(C=C2C(=O)Nc3c(Br)cc(Br)cc32)cc1OC(C)=O [10723/A05],26.4%,17.9%,75.7%
O=C1Nc2ccc(S(=O)(=O)Nc3ccc(C(F)(F)F)cc3)cc2C1=Cc1ccccc1Br [10723/E07],38.1%,14.5%,47.7%
CNS(=O)(=O)c1ccc2c(c1)C(=Cc1ccc(O)cc1O)C(=O)N2 [10723/D08],4.9%,31.1%,53.5%
O=C1Nc2ccc(CCCl)cc2C1=Cc1ccccc1Br [10723/G07],15.5%,-5.6%,43.0%
COc1ccc(C=C2C(=O)Nc3ccc(I)cc32)c(O)c1 [10723/B09],-12.0%,27.6%,57.7%
CNS(=O)(=O)c1ccc2c(c1)C(=Cc1cc(C(C)(C)C)cc(C(C)(C)C)c1O)C(=O)N2 [10723/D11],-6.2%,24.9%,42.0%
Cc1cc(C=C2C(=O)Nc3ccc(Br)c(C)c32)ccc1O [10723/C06],-4.5%,26.3%,63.4%
O=C1Nc2ccc(CCCl)cc2C1=Cc1ccc([N+](=O)[O-])s1 [10722/G04],-13.3%,11.7%,63.2%
Cc1c(Br)ccc2c1C(=Cc1ccccc1Br)C(=O)N2 [10723/C07],-4.0%,27.6%,44.3%
COc1ccc(C=C2C(=O)Nc3ccc(S(=O)(=O)Nc4ccc(C(F)(F)F)cc4)cc32)c(O)c1 [10723/E09],29.1%,22.1%,91.7%
CNS(=O)(=O)c1ccc2c(c1)C(=Cc1cccc(OC)c1O)C(=O)N2 [10723/D03],33.5%,8.2%,69.4%
CC(=O)Oc1ccc(C=C2C(=O)Nc3ccc(S(=O)(=O)Nc4ccc(C(F)(F)F)cc4)cc32)cc1OC(C)=O [10723/E05],-15.6%,-4.9%,63.7%
COc1ccc(C=C2C(=O)Nc3ccc(Br)c(C)c32)c(O)c1 [10723/C09],62.7%,62.3%,84.6%
CC(C)(C)c1cc(C=C2C(=O)Nc3ccc(S(=O)(=O)Nc4ccc(C(F)(F)F)cc4)cc32)c(O)c(C(C)(C)C)c1 [10723/E11],-44.6%,32.5%,50.1%
Cc1c(Br)ccc2c1C(=Cc1cc(C(C)(C)C)cc(C(C)(C)C)c1O)C(=O)N2 [10723/C11],-1.1%,8.9%,47.0%
O=C1Nc2ccc(CCCl)cc2C1=Cc1c(O)cc(O)cc1O [10722/G03],4.1%,-3.7%,52.2%
CC(=O)Oc1ccc(C=C2C(=O)Nc3ccc(CCCl)cc32)cc1OC(C)=O [10723/G05],1.3%,2.0%,79.9%
CC(=O)Oc1ccc(C=C2C(=O)Nc3ccc(I)cc32)cc1OC(C)=O [10723/B05],36.4%,15.2%,85.1%

SMILES,Biochem EGFR %Inhibition (EGFR),PDGF Kinase %Inhibition (PDGF-R),Met Kinase % Inhibition (MET)
O=C1Nc2ccc(I)cc2C1=Cc1cccc(Br)c1 [10723/B10],1.8%,17.2%,88.5%
O=C1Nc2ccc(I)cc2C1=Cc1ccccc1Br [10723/B07],28.8%,24.9%,86.7%
O=C1Nc2ccc(S(=O)(=O)Nc3ccc(C(F)(F)F)cc3)cc2C1=Cc1ccc(O)cc1O [10723/E08],52.6%,26.3%,89.3%
O=C1Nc2c(Br)cc(Br)cc2C1=Cc1ccccc1Br [10723/A07],3.9%,22.1%,63.2%
COc1cccc(C=C2C(=O)Nc3ccc(CCCl)cc32)c1O [10723/G03],18.5%,6.2%,74.7%
O=C1Nc2ccc(I)cc2C1=Cc1cc(O)c(O)c(Br)c1 [10723/B04],5.1%,40.1%,90.6%
COc1cccc(C=C2C(=O)Nc3ccc(S(=O)(=O)N4CCOCC4)cc32)c1O [10723/F03],9.3%,1.3%,78.3%
COc1ccc(C=C2C(=O)Nc3ccc(CCCl)cc32)c(O)c1 [10723/G09],-32.6%,-2.9%,80.7%
CNS(=O)(=O)c1ccc2c(c1)C(=Cc1ccc(O)c(O)c1O)C(=O)N2 [10723/D02],63.2%,22.1%,93.0%
O=C1Nc2ccc(CCCl)cc2C1=Cc1ccc(O)c(O)c1O [10723/G02],90.8%,13.8%,99.2%
COc1cccc(C=C2C(=O)Nc3c(Br)cc(Br)cc32)c1O [10723/A03],38.5%,11.7%,76.5%
CNS(=O)(=O)c1ccc2c(c1)C(=Cc1cccc(Br)c1)C(=O)N2 [10723/D10],-9.3%,21.4%,38.1%
O=C1Nc2ccc(I)cc2C1=Cc1ccc(O)cc1O [10723/B08],-0.4%,56.1%,82.8%
CNS(=O)(=O)c1ccc2c(c1)C(=Cc1ccc(O)c(C)c1)C(=O)N2 [10723/D06],-7.4%,6.2%,60.0%
CC(C)(C)c1cc(C=C2C(=O)Nc3c(Br)cc(Br)cc32)c(O)c(C(C)(C)C)c1 [10723/A11],-4.0%,41.5%,60.0%
Cc1c(Br)ccc2c1C(=Cc1cc(O)c(O)c(Br)c1)C(=O)N2 [10723/C04],23.5%,36.7%,91.9%
O=C1Nc2ccc(S(=O)(=O)Nc3ccc(C(F)(F)F)cc3)cc2C1=Cc1cccc(Br)c1 [10723/E10],-7.9%,44.3%,59.5%
CCCCN(CCCC)c1ccc(C=C2C(=O)Nc3ccc(CCCl)cc32)cc1 [10722/G10],3.3%,16.9%,27.0%
O=C1Nc2ccc(CCCl)cc2C1=Cc1cc(O)c(O)c(Br)c1 [10723/G04],16.7%,21.4%,85.9%
CNS(=O)(=O)c1ccc2c(c1)C(=Cc1ccc(OC)cc1O)C(=O)N2 [10723/D09],-3.8%,21.4%,62.6%
CNS(=O)(=O)c1ccc2c(c1)C(=Cc1ccc(OC(C)=O)c(OC(C)=O)c1)C(=O)N2 [10723/D05],3.7%,8.2%,54.5%
